What is called IC50 is the point on the concentration scale where inhibition reaches its midpoint. Lower therefore signals greater potency in that assay.

1 compound from BindingDB's records for doi:10.1016/j.bmcl.2008.12.079 (Gilead Sciences, 2009) can be followed below.

The experiment addresses T1, Gag-Pol polyprotein [1148-1435] (Human immunodeficiency virus 1, UniProt P04585).
T1 construct: 1148-1435
The experiment can be described thus: DNA Strand-Transfer Activity Assay. As to conditions: pH 7.3; 22 °C. As to the method:
In the strand-transfer assay, the biotinylated donor DNA was bound to streptavidin-coated plates, and integrase was added to each well to allow processing of the donor DNA. Serially diluted compounds and DIG-tagged target DNA were then added to each well, and 3-end joining reaction was allowed to proceed for 30 min. Signal was detected using horseradishperoxidase-conjugated anti-Digoxin antibody through chemiluminescence measurement.

On to `COc1c2c(c(O)c3ncc(Cc4ccc(F)cc4)cc13)C(=O)N(C)C2` [3-[(4-fluorophenyl)methyl]-9-hydroxy-5-methoxy-7-methyl-6H,7H,8H-pyrrolo[3,4-g]quinolin-8-one], for which the midpoint of inhibition, the IC50, lay at 100 nM.
